Measured values published in ChEMBL document CHEMBL4043218, “Analysis of the binding sites of vitamin D 1α-hydroxylase (CYP27B1) and vitamin D 24-hydroxylase (CYP24A1) for the design of selective CYP24A1 inhibitors: Homology modelling, molecular dynamics simulations and identification of key binding requirements” (Bioorg Med Chem, 2017).
pIC50: −log10 of the molar value.

What was measured:
Homo sapiens = species: Homo sapiens; assay: Selectivity index, ratio of IC50 for human CYP24A1 to IC50 for human CYP27B1
[1] = target: T1, 1,25-dihydroxyvitamin D(3) 24-hydroxylase, mitochondrial (Homo sapiens, UniProt Q07973); assay: Inhibition of human CYP24A1
T1 sequence (Q07973 whole entry): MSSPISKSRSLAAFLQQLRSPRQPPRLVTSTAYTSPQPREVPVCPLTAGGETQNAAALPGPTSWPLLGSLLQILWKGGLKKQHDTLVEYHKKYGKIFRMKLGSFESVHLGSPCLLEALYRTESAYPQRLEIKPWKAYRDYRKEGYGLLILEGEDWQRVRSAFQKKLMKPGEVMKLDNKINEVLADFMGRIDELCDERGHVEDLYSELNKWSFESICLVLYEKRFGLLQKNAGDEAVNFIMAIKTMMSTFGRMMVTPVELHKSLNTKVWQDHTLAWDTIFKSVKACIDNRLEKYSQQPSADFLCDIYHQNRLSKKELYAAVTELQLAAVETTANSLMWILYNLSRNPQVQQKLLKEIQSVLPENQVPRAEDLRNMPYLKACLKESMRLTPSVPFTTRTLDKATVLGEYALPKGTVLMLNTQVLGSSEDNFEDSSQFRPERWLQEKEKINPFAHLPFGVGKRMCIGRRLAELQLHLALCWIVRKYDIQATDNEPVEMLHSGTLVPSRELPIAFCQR

[2] = target: T2, 25-hydroxyvitamin D-1 alpha hydroxylase, mitochondrial (Homo sapiens, UniProt O15528); assay: Inhibition of human CYP27B1
T2 sequence (O15528 whole entry): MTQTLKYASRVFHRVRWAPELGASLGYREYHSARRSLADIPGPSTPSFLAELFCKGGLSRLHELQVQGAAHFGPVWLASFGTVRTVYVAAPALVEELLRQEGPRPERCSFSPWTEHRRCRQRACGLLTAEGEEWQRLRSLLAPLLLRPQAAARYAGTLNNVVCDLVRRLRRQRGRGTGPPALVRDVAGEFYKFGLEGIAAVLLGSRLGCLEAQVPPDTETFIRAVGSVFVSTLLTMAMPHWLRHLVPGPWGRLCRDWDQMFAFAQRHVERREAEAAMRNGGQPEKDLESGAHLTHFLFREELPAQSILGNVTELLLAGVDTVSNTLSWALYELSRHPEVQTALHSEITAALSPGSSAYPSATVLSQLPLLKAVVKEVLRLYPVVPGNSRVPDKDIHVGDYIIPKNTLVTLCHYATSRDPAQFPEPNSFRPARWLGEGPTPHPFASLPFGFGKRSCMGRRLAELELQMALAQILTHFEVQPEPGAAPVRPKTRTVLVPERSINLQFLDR

[3] = target: T2, 25-hydroxyvitamin D-1 alpha hydroxylase, mitochondrial; assay: Inhibition of human CYP27B1 expressed in Escherichia coli assessed as reduction in […] activity incubated for 25 mins using Adx, AdR and […]
[4] = target: T1, 1,25-dihydroxyvitamin D(3) 24-hydroxylase, mitochondrial; assay: Inhibition of N-terminal MBP-tagged human CYP24A1 expressed in Escherichia coli assessed as reduction in […] activity incubated for 25 mins using Adx, AdR and 1,25(OH)2D3

SMILES	Ratio IC50 (Homo sapiens)	pIC50 [1]	pIC50 [2]	pIC50 [3]	pIC50 [4]
CN(C)CCn1nnnc1SCC(O)(Cn1ccnc1)c1ccc(Cl)cc1Cl (configuration not stated)	66	< 5.00	7.22		
Cc1[nH]nc(O)c1C(c1cccc(OCc2ccncc2)c1)c1c(O)n[nH]c1C	5			6.39	5.59
Cc1[nH]nc(O)c1C(c1ccc(OCc2ccncc2)cc1)c1c(O)n[nH]c1C	5			6.24	5.60
CN(C)c1cccc2c(S(=O)(=O)NC(Cn3ccnc3)c3ccc(Cl)cc3Cl)cccc12 (configuration not stated)	47	5.35	7.02		
